Measured values taken from patent publication US5554631A, “5-pyrrolyl-6-halogeno-2-pyridylmethylsulfinyl benzimidazole derivatives” (Il-Yang Pharm. Co., Ltd., priority 1994, dated 1996).

Key:
H^+ /K^+ -ATPase = target: T1, H^+ /K^+ -ATPase (Oryctolagus cuniculus, UniProt P27112); test: Inhibition of H+/K+-ATPase enzyme activity in vitro; assay type: biochemical, rabbit; conditions: rabbit gastric microsomal H+/K+-ATPase, 5 min pre-incubation at 37° C., 4 mM ATP; read-out: IC50
T1 construct: The gastric mucous membrane was removed from rabbit; from tissue; host or cells: rabbit gastric mucosa, microsomal fraction (77,000 xg)
T1 sequence (P27112 2-1035 limits assumed): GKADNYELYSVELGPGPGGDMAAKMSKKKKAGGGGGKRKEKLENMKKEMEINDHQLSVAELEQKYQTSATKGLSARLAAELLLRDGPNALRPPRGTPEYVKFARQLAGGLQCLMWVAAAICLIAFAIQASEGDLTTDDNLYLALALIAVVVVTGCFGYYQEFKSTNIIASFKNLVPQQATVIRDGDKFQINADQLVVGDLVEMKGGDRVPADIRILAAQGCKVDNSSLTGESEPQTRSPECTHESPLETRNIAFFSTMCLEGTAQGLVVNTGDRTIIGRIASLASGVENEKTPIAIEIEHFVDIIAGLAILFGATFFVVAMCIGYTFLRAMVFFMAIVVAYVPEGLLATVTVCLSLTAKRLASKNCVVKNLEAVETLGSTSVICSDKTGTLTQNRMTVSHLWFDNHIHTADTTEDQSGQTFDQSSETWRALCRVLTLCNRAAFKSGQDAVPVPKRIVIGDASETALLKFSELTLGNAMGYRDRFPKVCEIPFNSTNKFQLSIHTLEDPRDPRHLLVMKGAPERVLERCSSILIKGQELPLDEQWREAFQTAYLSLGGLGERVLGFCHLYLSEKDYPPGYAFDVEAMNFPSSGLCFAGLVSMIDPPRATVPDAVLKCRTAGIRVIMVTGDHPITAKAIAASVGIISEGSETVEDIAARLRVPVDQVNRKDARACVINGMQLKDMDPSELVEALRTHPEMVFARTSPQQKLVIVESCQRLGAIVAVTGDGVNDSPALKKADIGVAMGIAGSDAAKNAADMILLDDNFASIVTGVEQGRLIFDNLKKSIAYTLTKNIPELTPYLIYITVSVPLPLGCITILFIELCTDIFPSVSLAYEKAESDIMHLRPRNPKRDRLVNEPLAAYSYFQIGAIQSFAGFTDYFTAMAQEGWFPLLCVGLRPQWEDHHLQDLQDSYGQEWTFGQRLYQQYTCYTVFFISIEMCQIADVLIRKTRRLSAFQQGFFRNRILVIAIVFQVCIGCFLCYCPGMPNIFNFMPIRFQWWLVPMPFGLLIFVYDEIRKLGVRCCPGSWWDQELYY
T1 sequence (P18597 whole entry partner): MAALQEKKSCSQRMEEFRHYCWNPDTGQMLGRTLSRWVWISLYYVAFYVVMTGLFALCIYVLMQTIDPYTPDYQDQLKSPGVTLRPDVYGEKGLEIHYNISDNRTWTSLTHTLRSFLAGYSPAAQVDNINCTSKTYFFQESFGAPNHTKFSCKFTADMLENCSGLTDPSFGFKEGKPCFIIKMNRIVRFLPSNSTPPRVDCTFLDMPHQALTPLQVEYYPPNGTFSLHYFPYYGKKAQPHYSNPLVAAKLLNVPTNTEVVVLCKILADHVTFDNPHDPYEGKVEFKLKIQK
Experimental: The gastric mucous membrane was removed from rabbit and then centrifuged with 77,000 xg using a ultracentrifuge to separate the microsomal fraction which was used as the source of H^+ /K^+ -ATPase enzyme for this test. 60 μg of H^+ /K^+ -ATPase was pre-incubated with the sample (the compound according to the present invention) for 5 minutes at 37° C. and then 4 mM ATP as the substrate and 4 mM Mg^++, 20 mM K^+ as the cofactor were added thereto. Then, the amount of inorganic phosphorus thus produced was determined using a spectrophotometer at 660 nm and converted into the amount of protein according to Lowry method. […]

gastric juice secretion = test: Inhibition of gastric juice secretion, Shay method; assay type: in vivo, SD male rats; conditions: 5 h; for Gastric juice volume / Inhibition rate, gastric juice secretion: intraduodenal, rat; for Inhibition rate, gastric juice secretion: vs normal group
Experimental: (§1) The specific test methods are as follows.
(§2) SD male rats (200±20 g) were fasted for 24 hours, except for water, and then anesthesized with ether. The abdomen of rats was incised and then the pylorus was ligated. The test compounds were suspended or dissolved in […] (carboxymethylcellulose) and injected into duodenum. After the abdomen was suctured, the rats were allowed to stand for 5 hours and then sacrificed with ether. The stomach was removed from rats and the gastric juices were collected. The gastric juice was centrifuged with 10,000×g for 10 minutes at 4° C. to remove the precipitate. The amount of gastric juice and acidity were determined using pH 7.0 end point assay with 0.02N NaOH and then the total acid output was calculated.

acidity = test: Inhibition of acidity (total acid output), Shay method; assay type: in vivo, SD male rats; conditions: 5 h; for Volume (inhibition of acidity) / Inhibition rate, acidity: intraduodenal, rat; for Inhibition rate, acidity: vs normal group
Experimental: as §1, §2

in vivo = conditions: mouse, in vivo, po
Experimental: (§3) Five weeks aged ICR (male, female) mouse were pre-bred in the breeding cage for one week and then the animals showing a smooth gain in body weight were randomly selected and used in this test. The amount to be administered to the test animals was established on the basis of the maximum dose of 5,000 mg/kg with the common ratio of 1.5.
(§4) The test compounds in a powder were suspended in 0.5% methylcellulose and administered per oral using a lml syringe. The other specific conditions for administration are described in the following.
(§5) In the above test, the control group received only 0.5% methylcellulose.
(§6) (1) Clinical symptoms and death of test animals
(§7) The clinical symptoms and death of test animals caused by the test compounds were recorded immediately after administration of the test compounds and during the overall test period.

ICR (male, female) mouse = test: in vivo; conditions: mouse
Experimental: as §3, §4, §5, §6, §7

[1] = test system: gastric and duodenal ulcers; test: Anti-ulcer effect / pharmacological efficacy (general statements); conditions: in words

SMILES: COc1ccnc(C[S+]([O-])c2nc3cc(-n4cccc4)c(F)cc3[nH]2)c1C (stereo not drawn) [Compound 2, 2-[[(4-methoxy-3-methyl)-2-pyridinyl]methylsulfinyl]-5-(1H-pyrrol-1-yl)-6-fluoro-1H-benzimidazole]
- IC50 (H^+ /K^+ -ATPase): 4.1 µM
- Gastric juice volume (gastric juice secretion; 3 mg/kg): 2.11 ± 0.36 ml/100 g BW
- Inhibition rate, gastric juice secretion (gastric juice secretion; 3 mg/kg): 35.28%
- Gastric juice volume (gastric juice secretion; 10 mg/kg): 1.52 ± 0.19 ml/100 g BW
- Inhibition rate, gastric juice secretion (gastric juice secretion; 10 mg/kg): 53.37%
- Gastric juice volume (gastric juice secretion; 30 mg/kg): 1.03 ± 0.10 ml/100 g BW
- Inhibition rate, gastric juice secretion (gastric juice secretion; 30 mg/kg): 68.40%
- ED50 (gastric juice secretion; Rattus norvegicus): 8.18 mg/kg
- Volume (inhibition of acidity) (acidity; 3 mg/kg): 34.60 ± 8.12 μEq/hr
- Inhibition rate, acidity (acidity; 3 mg/kg): 40.62%
- Volume (inhibition of acidity) (acidity; 10 mg/kg): 14.28 ± 4.28 μEq/hr
- Inhibition rate, acidity (acidity; 10 mg/kg): 75.35%
- Volume (inhibition of acidity) (acidity; 30 mg/kg): 5.72 ± 0.59 μEq/hr
- Inhibition rate, acidity (acidity; 30 mg/kg): 90.13%
- ED50 (acidity; Rattus norvegicus): 4.04 mg/kg
- LD50 (in vivo): > 5000 mg/kg
- Acute toxicity (in words) (ICR (male, female) mouse; clinical symptoms, death and autopsy results, oral): very low as in Omeprazole
- Safety (conclusion) (ICR (male, female) mouse; in vivo): very safe compound
- LD50 (ICR (male, female) mouse; in vivo, po): > 5,000.0 mg/kg BW
- Visual autopsy view (ICR (male, female) mouse; in vivo, po): No specific abnormal autopsy view was observed
- Anti-ulcer effect compared with Omeprazole [1]: anti-ulcer effect is similar to that of Omeprazole
